Data taken from patent US11298314B2, “Injectable composition for localized fat reduction without pain, edema, and side effects, and method for preparing same” (AMI PHARM CO., LTD., priority 2017, dated 2022).

How the values were obtained:
paw of the rats = assay: Rat paw edema; assay type: in vivo, Sprague Dawley rats; details: for degree of edema in words: 2 hours after administration, rat paw; for degree of edema, 1 hour after administration / degree of edema, 2 hours after administration / degree of edema, Immediately after administration: 0.1 ml into rat paw
Protocol: To evaluate the degree of edema, each test compositions described above were injected into the paw of the rats. Specifically, male Sprague Dawley rats (6 weeks old) were purchased and used after one week of adaptation. The rats (body weight: 170˜200 g) were randomly selected and the thickness of the rat paw were measured with a caliper before the administration of the test compositions. In order to observe the edema, 0.1 ml of PBS and the various test compositions were administered to the paws of the rats. Measurements of the […] were performed by a caliper immediately before the injection, immediately after the injection, and 1 or 2 hours after the injection. In addition, when the thickness was measured, the skin lesion of the injection site was observed by photographing the sole of the paw (using a 4×4 cm scale).
The degree of edema was evaluated as 0 to 4 grades.

sole of the rat paws = assay: Measurement of skin lesion (erythema) on rat paw; assay type: in vivo, Sprague Dawley rats;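 note: grades − to ++++ mean no to extremely severe erythema versus before injection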
Summary of the method: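 Male Sprague Dawley rats (6 weeks, 170–200 g) received 0.1 ml test composition or PBS injected into the paw. Paw thickness measured by caliper before, immediately after, and 1 or 2 h post-injection; sole lesions photographed and graded 0–4.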

[1] = system: tissues of the injected area (rat paw); assay: H&E staining histological test (inflammation) of injected rat paw; assay type: in vivo, Sprague Dawley rats
Protocol: The tissues of the injected area were dissected, fixed with 10% formalin, and then the specimen was prepared and images were captured using an optical microscope. The degree of inflammation was evaluated as follows.

3T3-L1 adipocytes = assay: Adipocyte (3T3-L1) reducing effect, MTT assay; assay type: cell-based; details: 24 to 96 hours, various concentrations
Protocol: Tests were performed to compare the adipocyte reducing activity of the PPC single composition and the PPC composition solubilized with bile acids. Differentiated 3T3L-1 adipocyte lines were used to observe adipocyte reduction activity, and cell viability was monitored by MTT assay. […] Materials and methods employed in the following experiments are described below. In the following, % of the composition refers to % (w/v).
The specific test methods are as follows. […] The cells were washed twice with PBS, treated with MTT reagent (50 μl) and left at 37° C. for 2 hours. After removing the supernatant, MTT formazan crystals were dissolved in DMSO and the absorbance was measured at 540 nm using a microplate reader.
The 3T3-L1 adipocyte (ATCC) was cultured in Dulbecco's modified eagle medium (DMEM) (Invitrogen) supplemented with 10% fetal bovine serum, 100 units/ml penicillin and 100 μg/ml streptomycin under the condition of 5% CO2 and 37° C. […] Subsequently, the medium was replaced with DMEM medium containing 1 μg/ml insulin (Sigma), and the culture medium was maintained and changed every 2 to 3 days until the degree of differentiation reaches maximum. If it took more than 7 days, the cells were kept in normal DMEM culture medium until starting the tests. […] After the cells were incubated for 3 hours under the condition of 37° C. and 5% CO2, the MTT solution was removed.

[2] = Formulation stability of PPC injectable preparations: property, transparency, particle size, pH
Protocol: The particle size was measured using a nano particle size analyzer (Microtrac Wave, MICROTRACT, USA). […] The transparency was measured using a spectrophotometer (CM-3600d, KONICA MINOLTA, JAPAN). The pH was measured with a pH meter (ST3100, OHAUS, GERMANY), and the isotonicity was measured with an osmotic pressure meter (Vapro 5600, Elitech Group, Tokyo, Japan), and viscosity was analyzed using a viscometer (Digital Viscometer CL-2, CAS, Korea).
The washed and sterilized preparation tank was charged with the water for injection (at room temperature), and phosphatidylcholine (PPC) and benzyl alcohol were added thereto, and the mixture was stirred at 200 RPM for 2 hours under the condition of nitrogen pressure, shading and room temperature. After the completion of stirring, the mixture was transferred to an ultra-high pressure homogenizer (Nano Disperser NLM100, Ilshin Autoclave, Korea) with a nitrogen pressure. Ultra-high pressure homogenization (dispersion) was carried out at 12,000 psi for 7 cycles, and the particles were finely pulverized. Then, the pH was adjusted. After filtration through a 0.2 μm filter, the vial was filled and sealed.
Specifically, the water for injection was put into the preparation tank which was cleaned and sterilized (room temperature), and sodium hydroxide was added to the water for injection. Then deoxycholic acid and benzyl alcohol were added, stirred and dissolved. Then, phosphatidylcholine was added thereto, and the mixture was stirred at 200 RPM for about 24 hours under shading, sealing, room temperature (25° C.), and nitrogen pressure. After completion of the stirring, the pH was adjusted (if necessary, with additional sodium hydroxide or hydrochloric acid), and it was filtered through a 0.2 μm filter, and filled into the vial and sealed.
Then glycocholic acid and benzyl alcohol were added, stirred and dissolved. Then, phosphatidylcholine was added thereto, and the mixture was stirred at 200 RPM for about 24 hours under shading, sealing, room temperature (25° C.), and nitrogen pressure. After completion of the stirring, the pH was adjusted (if necessary, with additional sodium hydroxide or 0.001-0.6% of hydrochloric acid), and it was filtered through a 0.2 μm filter, and filled into the vial and sealed.
The formulation stability of the PPC injectable compositions solubilized with glycocholic acid (GCA) in Tables 3 and 4 was evaluated immediately after the preparation and 30 days after the preparation (refrigerated storage).

[3] = bile acid single composition 1.0% (w/v)
[4] = bile acid single composition 2.5% (w/v)
[5] = bile acid single composition 5.0% (w/v)
[6] = bile acid single composition 7.5% (w/v)

## C[C@H](CCC(=O)NCCS(=O)(=O)O)[C@H]1CC[C@H]2[C@@H]3[C@@H](O)C[C@@H]4C[C@H](O)CC[C@]4(C)[C@H]3CC[C@]12C [TUDCA, 2-[[(4R)-4-[(3R,5S,7S,8R,9S,10S,13R,14S,17R)-3,7-dihydroxy-10,13-dimethyl-2,3,4,5,6,7,8,9,11,12,14,15,16,17-tetradecahydro-1H-cyclopenta[a]phenanthren-17-yl]pentanoyl]amino]ethanesulfonic acid]
Paw of the rats; listed as TUCA 1.0%
  degree of edema in words: Mild
Paw of the rats; listed as TUCA 2.5%
  degree of edema in words: Mild
Paw of the rats; listed as TUDCA 1.0%
  degree of edema in words: mild
Paw of the rats; listed as TUDCA 2.5%
  degree of edema in words: mild
Paw of the rats; listed as TUDCA 5.0%
  degree of edema in words: moderate
Paw of the rats; listed as TUDCA 7.5%
  degree of edema in words: Moderate
Paw of the rats; [3]
  degree of edema, 1 hour after administration: + (mild edema [+, (the degree of swelling was 1-20% compared to before the injection)])
  degree of edema, 2 hours after administration: + (mild edema [+, (the degree of swelling was 1-20% compared to before the injection)])
  degree of edema, Immediately after administration: ++ (moderate edema [++, (the degree of swelling was 20-40% compared to before the injection)])
Paw of the rats; [4]
  degree of edema, 1 hour after administration: + (mild edema [+, (the degree of swelling was 1-20% compared to before the injection)])
  degree of edema, 2 hours after administration: + (mild edema [+, (the degree of swelling was 1-20% compared to before the injection)])
  degree of edema, Immediately after administration: ++ (moderate edema [++, (the degree of swelling was 20-40% compared to before the injection)])
Paw of the rats; [5]
  degree of edema, 1 hour after administration: + (mild edema [+, (the degree of swelling was 1-20% compared to before the injection)])
  degree of edema, 2 hours after administration: ++ (moderate edema [++, (the degree of swelling was 20-40% compared to before the injection)])
  degree of edema, Immediately after administration: ++ (moderate edema [++, (the degree of swelling was 20-40% compared to before the injection)])
Paw of the rats; [6]
  degree of edema, 1 hour after administration: ++ (moderate edema [++, (the degree of swelling was 20-40% compared to before the injection)])
  degree of edema, 2 hours after administration: ++ (moderate edema [++, (the degree of swelling was 20-40% compared to before the injection)])
  degree of edema, Immediately after administration: ++ (moderate edema [++, (the degree of swelling was 20-40% compared to before the injection)])
Sole of the rat paws; [3]
  grade of skin lesion (erythema), 1 hour after administration: −
  grade of skin lesion (erythema), 2 hours after administration: −
  grade of skin lesion (erythema), Immediately after administration: −
Sole of the rat paws; [4]
  grade of skin lesion (erythema), 1 hour after administration: −
  grade of skin lesion (erythema), 2 hours after administration: −
  grade of skin lesion (erythema), Immediately after administration: −
Sole of the rat paws; [5]
  grade of skin lesion (erythema), 1 hour after administration: −
  grade of skin lesion (erythema), 2 hours after administration: −
  grade of skin lesion (erythema), Immediately after administration: −
Sole of the rat paws; [6]
  grade of skin lesion (erythema), 1 hour after administration: −
  grade of skin lesion (erythema), 2 hours after administration: −
  grade of skin lesion (erythema), Immediately after administration: −
[1]; bile acid single composition 1.0% (w/v), injected rat paw
  Inflammation (H&E), BA % (w/v) 1.0: −
[1]; bile acid single composition 2.5% (w/v), injected rat paw
  Inflammation (H&E), BA % (w/v) 2.5: −
[1]; bile acid single composition 5.0% (w/v), injected rat paw
  Inflammation (H&E), BA % (w/v) 5.0: −
[1]; bile acid single composition 7.5% (w/v), injected rat paw
  Inflammation (H&E), BA % (w/v) 7.5: +
[1]; rats sacrificed at 3 hours, injected paw
  degree of inflammation (H&E) in words: Mild
3T3-L1 adipocytes
  adipocyte viability / adipocyte-reducing activity: inhibits the adipocyte apoptosis and degradation
[2]; PPC 5.0%
  bile acid/PPC molar ratio below which a substantially stable formulation did not occur: less than 1.29
[2]; based on PPC 5.0%
  bile acid concentration at which stable injectable preparations can be made: ≥ 4.0%
